Measurements as given in US12319641B2, “Lobaric acid derivative having PTP-1B inhibitory activity, preparation method therefor and use thereof” (SNBIOSCIENCE INC., priority 2019, dated 2025).
Read-outs that look alike come from different tables or passages of the source.

Assays:
[1] = Body weight after oral administration in diabetic disease model animals; assay type: in vivo; details: db/db mice; for change in body weight compared to the control: oral administration
Experimental: To 7-week-old male db/db mice (type 2 diabetes model animal, C57/BLKS/J-db/db, Korea Research Institute of Bioscience and Biotechnology), 200 μl of PBS as a control and 50 mg/kg of dimethyl lobamide as an experimental group were orally administered daily. After administration, in order to investigate the change in body weight, the compound (dimethyl-lobamide) was orally administered twice a week at a fixed time, and then the body weight was measured using an animal scale.

[2] = target: T1, protein tyrosine phosphatase-1B (PTP-1B) (Homo sapiens, UniProt P18031); assay: PTP-1B inhibitory activity, enzyme activity measured spectroscopically with pNPP substrate; assay type: biochemical
T1 construct: purchased Bioneer, Korea
T1 sequence (P18031 1-435): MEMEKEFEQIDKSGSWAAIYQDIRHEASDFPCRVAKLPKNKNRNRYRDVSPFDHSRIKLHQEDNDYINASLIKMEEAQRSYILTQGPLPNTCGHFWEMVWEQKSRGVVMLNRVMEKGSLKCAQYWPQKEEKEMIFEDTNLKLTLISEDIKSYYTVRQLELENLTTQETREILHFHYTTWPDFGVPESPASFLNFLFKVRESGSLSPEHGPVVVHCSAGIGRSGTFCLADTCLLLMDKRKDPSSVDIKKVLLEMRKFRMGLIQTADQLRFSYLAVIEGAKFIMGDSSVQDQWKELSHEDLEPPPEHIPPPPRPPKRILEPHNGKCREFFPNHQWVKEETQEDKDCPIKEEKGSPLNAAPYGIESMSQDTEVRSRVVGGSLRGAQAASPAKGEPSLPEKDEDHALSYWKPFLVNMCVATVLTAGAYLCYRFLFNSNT
Experimental: In order to analyze protein tyrosine phosphatase-1B (PTP-1B) inhibitory activity, enzyme activity was measured spectroscopically.
Specifically, to 0.5 μg/mL of PTP-1B (Bioneer, Korea), PTP-1B buffer (50 mM Bis-tris buffer, pH 6.5, 1 mM EDTA, 1 mM DTT), dimethyl lobamide (M11A7) (0, 0.4, 0.8, 1.6, 3.12, 6.25, 12.5, 25 nM) and the substrate pNPP (para Nitrophenyl phosphate, Sigma, USA) were added and reacted at room temperature for 30 minutes. Then, 10 N NaOH was added thereto, followed by reaction at room temperature for 5 minutes to terminate the reaction between PTP-1B, dimethyl lobamide and the substrate. Thereafter, the absorbance was measured at 405 nm.

[3] = test system: db/db mice (type 2 diabetes model animal); assay: Blood glucose after daily oral administration in diabetic disease model animals; assay type: in vivo; details: for antidiabetic effects by oral administration: diabetic disease model animals
Experimental: To more accurately measure antidiabetic effects of dimethyl lobamide, 200 μl of PBS as a control and 50 mg/kg of dimethyl lobamide compound as an experimental group were orally administered daily to 7-week-old male db/db mice (type 2 diabetes model animal, C57/BLKS/J-db/db, Korea Research Institute of Bioscience and Biotechnology). Thereafter, blood glucose was measured once a week. At this time, after oral administration, blood glucose was measured after fasting for 6 hours.

[4] = target: T1, protein tyrosine phosphatase-1B (PTP-1B); details: comparison compounds; lobarstin from Korean Patent Registration No. 10-1481141; read-out: IC50 of PTP-1B inhibitory activity, comparison value; cited from earlier work

| SMILES | average body weight on day 0 ([1]; 50 mg/kg oral, day 0) [g] | average body weight on day 7 ([1]; 50 mg/kg oral, day 7) [g] | average body weight on day 14 ([1]; 50 mg/kg oral, day 14) [g] | change in body weight compared to the control [1] | change in body weight compared to the control ([1]; listed as dimethyl-lobamide) | PTP-1B inhibition rate ([2]; 0-25 nM) | IC50 ([2]; 0.5 μg/mL PTP-1B, pNPP, room temperature 30 minutes, absorbance 405 nm) [µM] | average blood glucose on day 0 ([3]; db/db mice, 50 mg/kg oral daily, after fasting 6 hours, day 0) [mg/dL] | average blood glucose on day 7 ([3]; db/db mice, 50 mg/kg oral daily, after fasting 6 hours, day 7) [mg/dL] | average blood glucose on day 14 ([3]; db/db mice, 50 mg/kg oral daily, after fasting 6 hours, day 14) [mg/dL] | increase in blood glucose versus control ([3]; db/db mice, 50 mg/kg oral, day 0 to 14) | antidiabetic effects by oral administration [3] | IC50 [4] [µM] |
| --- | --- | --- | --- | --- | --- | --- | --- | --- | --- | --- | --- | --- | --- |
| CCCCCc1c(Oc2cc(OC)cc(C(=O)CCCC)c2C(=O)N(C)C)c(O)cc(O)c1C(=O)O [dimethyl lobamide] | 30.95 | 31.78 | 34.86 | body weight reducing effects were demonstrated | no significant change in body weight | increased in a concentration-dependent manner | 0.00216 | 193 | 194 | 268 | lower increase in blood glucose than the control | could have the antidiabetic effects by oral administration | – |
| CCC/C=C1/OC(=O)c2c(Oc3c(O)cc(O)c(C(=O)O)c3CCCCC)cc(OC)cc21 [lobarstin, reference compound] | – | – | – | – | – | – | – | – | – | – | – | no antidiabetic effects by oral administration | 0.154 |
